From patent US20100305101A1, “Leptin genotype and ß-adrenergic agonists” (priority 2009, published 2010)
Counter-ions that a name gives are not always drawn.

Experiments:
[1] = Feedlot trial of leptin Arg25Cys genotype x Zilpaterol Hydrochloride administration (Cactus Research); format: in vivo, cattle; settings: for daily dry matter intake (DDMI) during ZH treatment: last 24 days on feed; for % USDA stamped quality grade Choice+Prime, effect of ZH administration: vs no ZH
Description: In a trial completed at a private research facility in Texas, USA (Cactus Research, Amarillo Tex.) leptin genotype was assessed for potential interaction with Zilpaterol Hydrochloride (ZH). The trial consisted of 4,279 animals and occurred from summer of 2008 and carried through to spring of 2009. The trial was conducted as a randomized complete block design with approximately 90 animals being placed into pens based on leptin genotype and randomly assigned to drug treatment with pen being the experimental unit. Treatment structure was a 3×2 factorial including three letting genotypes (CC, CT and TT) and two drug treatments (zero control and drug treatment). Pens were blocked by time, specifically arrival date of the animal to the feedlot. Each block was slaughtered on the same day, and the complete process replicated eight times resulting in eight blocks. Below is a schematic summary of the trial design.
Upon arrival into the feedlot animals were individually weighed and back fat was measured using ultrasound. These measured were also taken 65, days on feed, and then one week prior to ZH treatment and 2-3 days prior to slaughter. All cattle were slaughtered and USDA carcass data were measured. Growth data were fitted to a non-linear growth model.
Backfat was measure by ultrasound at: • 1) Arrival • 2) 65 days on feed • 3) 1 week prior to zilpaterol initiation • 4) 2-3 days prior to slaughter 8 total blocks, 6 treatment pens per block, and 4,179 head total (avg initial wt=875 lbs) Within blocks, all treatments were killed on the same day (avg days on feed=129

[2] = RH 300 mg/steer/day, ZH 6 mg/steer/day; cited from earlier work
B-AR's = settings: swine; within the first 7 days of treatment with RH; cited from earlier work

Structure (SMILES) | hot carcass weight (HCW) gain response to ZH administration ([1]; CC and CT genotype animals) | % empty body fat (% EBF) change when fed ZH ([1]; CC genotype animals) | marbling score, effect of ZH administration ([1]; CC genotype animals) | daily dry matter intake (DDMI) during ZH treatment ([1]; CC genotype animals) | % USDA stamped quality grade Choice+Prime, effect of ZH administration ([1]; CC genotype animals) | daily dry matter intake (DDMI) during ZH treatment ([1]; CT and TT genotype animals) | marbling score, effect of ZH administration ([1]; TT and CT genotype animals) | rib eye area (REA) gain with ZH administration ([1]; TT and CT genotype animals) [square inches] | % USDA stamped quality grade Choice+Prime, effect of ZH administration ([1]; TT and CT genotype animals) | % empty body fat (% EBF) change when fed ZH ([1]; TT genotype animals) | hot carcass weight (HCW) gain response to ZH administration ([1]; TT genotype animals) | LM (Longissimus Muscle) area [2] | sheer force and toughness of the muscle tissue [2] | B-AR down-regulation in adipose tissue (B-AR's) [%]
CC(C)N[C@@H]1CCn2c(=O)[nH]c3cccc(c32)[C@H]1O (racemic) [ZH, Zilpaterol Hydrochloride] | largest response | smallest reduction | slight reduction | no change | unaffected | significant reduction | much greater reduction | 1.4 | significant reductions | largest reduction | lowest response | larger | increased | –
CC(CCc1ccc(O)cc1)NCC(O)c1ccc(O)cc1 (stereo not shown) [RH, Ractopamine Hydrochloride] | – | – | – | – | – | – | – | – | – | – | – | no effect | increased | ~50
